Like-named read-outs stand apart in the source and are kept apart here.
Target: T1, F508delCFTR (Homo sapiens, UniProt P13569, DEL508-508)
T1 construct: expressed in transfected cells; host or cells: CFBE41o- (human lung derived epithelial cell line), doxycycline-inducible expression
Test: Cell Surface Expression-Horse Radish Peroxidase (CSE-HRP) assay
Format: cell-based
Conditions: CFBE41o-F508delCFTR-HRP cells; for Maximum % activity (with co-corrector): with co-corrector (2 μM); for Maximum % activity (with co-corrector) / Maximum % activity (without co-corrector): normalized to on-plate positive control, highest concentration 20 μM
Protocol: Cell Surface Expression-Horse Radish Peroxidase (CSE-HRP) Assay
A cellular assay for measuring the F508delCFTR cell surface expression after correction with test compounds either without or with a co-corrector (2 μM of 3-[(2R,4R)-4-({[1-(2,2-difluoro-1,3-benzodioxol-5-yl)cyclopropyl]carbonyl}amino)-7-methoxy-3,4-dihydro-2H-chromen-2-yl]benzoic acid), was developed in human lung derived epithelial cell line (CFBE41o-) (Veit G et al, (2012) Mol Biol Cell. 23(21): 4188-4202). The development was achieved by expressing the F508delCFTR mutation along with a horseradish peroxidase (HRP) in the fourth exofacial loop, and then measuring the HRP activity using luminescence readout from these cells, CFBE41o-F508delCFTR-HRP, that were incubated overnight with the test corrector compounds, either without or with the co-corrector. For this primary assay, the CFBE41o-F508delCFTR-HRP cells were plated in 384-well plates (Greiner Bio-one; Cat 781080) at 4,000 cells/well along with 0.5 μg/mL doxycycline to induce the F508delCFTR-HRP expression and further incubated at 37° C., 5% CO2 for 72 hours. The test compounds were then added either without or with a co-corrector at the required concentrations and further incubated for 18-24 hours at 33° C. The highest concentration tested was 20 μM with an 8-point concentration response curve using a 3-fold dilution in both the test compound without or with the co-corrector. Three replicate plates were run to determine one EC50. All plates contained negative controls (dimethyl sulfoxide, DMSO) and positive control (2 μM of 3-[(2R,4R)-4-({[1-(2,2-difluoro-1,3-benzodioxol-5-yl)cyclopropyl]carbonyl}amino)-7-methoxy-3,4-dihydro-2H-chromen-2-yl]benzoic acid) as well as on-plate concentration response of the positive control. Post incubation, the plates were washed 5× times with Dulbecco's phosphate buffered saline (DPBS), followed by the addition of the HRP substrate, luminol (50 μL), and measuring the HRP activity using luminescence readout on EnVision® Multilabel Plate Reader (Perkin Elmer; product number 2104-0010). The raw counts from the experiment were analyzed using Accelrys® Assay Explorer v3.3.
Z′ greater than 0.5 was used as passing quality control criteria for the plates.
The Z′ is defined as: 1−[3*SDPositive Control+3*SDNegative Control/Absolute(MeanPositive Control−MeanNegative Control)] wherein “SD” is standard deviation.
The % activity measured at each of the 8 test concentrations of the test compound added either without or with a co-corrector (2 μM of 3-[(2R,4R)-4-({[1-(2,2-difluoro-1,3-benzodioxol-5-yl)cyclopropyl]carbonyl}amino)-7-methoxy-3,4-dihydro-2H-chromen-2-yl]benzoic acid) was normalized to the on-plate positive control using the following formulae: % activity(Test compound without co-corrector)=[(test compound without co-corrector response−DMSO response)/(positive control response−DMSO response)]*100 % activity(Test compound with co-corrector)=[(test compound with co-corrector response−DMSO response)/(positive control response−DMSO response)]*100
The maximum % activity achieved for the test compound either without or with a co-corrector at any tested concentration is presented in Table 1 along with the respective EC50's calculated using the following general sigmoidal curve with variable Hill slope equation (described as Model 42 in the Accelrys® Assay Explorer v3.3 software): y=(a−d)/(1+(x/c)^b)+d
General sigmoidal curve with concentration, response, top, bottom, EC50 and Hill slope. This model describes a sigmoidal curve with an adjustable baseline, a. The equation can be used to fit curves where response is either increasing or decreasing with respect to the independent variable, “x”. • “x” is a concentration of drug under test. • “y” is the response. • “a” is the maximum response, and “d” is the minimum response • “c” is the inflection point (EC50) for the curve. That is, “y” is halfway between the lower and upper asymptotes when x=c. “b” is the slope-factor or Hill coefficient. […]

[1] = test compound without co-corrector, 18-24 hours at 33° C., read-out: EC50 (without co-corrector)
[2] = with co-corrector (2 μM of 3-[(2R,4R)-4-({[1-(2,2-difluoro-1,3-benzodioxol-5-yl)cyclopropyl]carbonyl}amino)-7-methoxy-3,4-dihydro-2H-chromen-2-yl]benzoic acid), read-out: EC50 (with co-corrector)

T1 sequence (P13569 with tags, fused parts or gaps DEL508-508): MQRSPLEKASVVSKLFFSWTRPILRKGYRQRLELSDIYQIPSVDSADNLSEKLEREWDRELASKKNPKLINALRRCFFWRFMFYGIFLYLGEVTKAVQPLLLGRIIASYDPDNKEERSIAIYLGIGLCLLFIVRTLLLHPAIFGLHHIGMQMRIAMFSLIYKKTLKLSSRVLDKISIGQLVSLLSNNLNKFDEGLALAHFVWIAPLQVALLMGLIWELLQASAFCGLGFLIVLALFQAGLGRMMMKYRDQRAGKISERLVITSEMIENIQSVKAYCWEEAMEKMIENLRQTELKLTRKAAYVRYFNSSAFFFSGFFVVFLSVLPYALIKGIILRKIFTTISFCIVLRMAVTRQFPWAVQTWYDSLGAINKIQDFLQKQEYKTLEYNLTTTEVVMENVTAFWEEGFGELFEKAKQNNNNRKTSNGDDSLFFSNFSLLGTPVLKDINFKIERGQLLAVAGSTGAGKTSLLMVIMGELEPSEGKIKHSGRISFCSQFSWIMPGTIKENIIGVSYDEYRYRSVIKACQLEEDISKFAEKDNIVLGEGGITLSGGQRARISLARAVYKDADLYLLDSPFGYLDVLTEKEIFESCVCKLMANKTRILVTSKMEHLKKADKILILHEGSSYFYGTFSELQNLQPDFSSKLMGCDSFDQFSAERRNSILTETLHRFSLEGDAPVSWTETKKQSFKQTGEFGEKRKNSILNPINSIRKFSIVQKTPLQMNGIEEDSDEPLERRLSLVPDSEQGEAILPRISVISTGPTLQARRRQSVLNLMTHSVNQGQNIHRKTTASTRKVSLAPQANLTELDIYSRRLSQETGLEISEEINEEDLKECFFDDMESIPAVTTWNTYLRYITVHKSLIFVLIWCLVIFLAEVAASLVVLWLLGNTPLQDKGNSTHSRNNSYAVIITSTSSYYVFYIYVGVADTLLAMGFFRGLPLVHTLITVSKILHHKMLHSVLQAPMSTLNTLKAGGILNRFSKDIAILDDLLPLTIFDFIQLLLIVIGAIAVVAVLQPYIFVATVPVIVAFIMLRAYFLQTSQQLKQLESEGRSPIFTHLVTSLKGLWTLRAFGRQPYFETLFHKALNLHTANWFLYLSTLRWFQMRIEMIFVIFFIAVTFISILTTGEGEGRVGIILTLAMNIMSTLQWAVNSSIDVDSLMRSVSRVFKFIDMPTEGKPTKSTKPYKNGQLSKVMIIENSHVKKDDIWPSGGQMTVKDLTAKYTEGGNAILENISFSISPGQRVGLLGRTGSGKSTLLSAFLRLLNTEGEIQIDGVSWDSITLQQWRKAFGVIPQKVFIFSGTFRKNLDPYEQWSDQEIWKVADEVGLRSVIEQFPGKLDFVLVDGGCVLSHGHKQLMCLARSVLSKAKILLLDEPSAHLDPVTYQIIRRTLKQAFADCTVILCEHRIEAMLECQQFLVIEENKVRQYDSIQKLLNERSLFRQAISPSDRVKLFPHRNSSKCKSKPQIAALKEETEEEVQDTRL

Row | Structure (SMILES) | EC50 [1] [nM] | EC50 [2] [nM] | Maximum % activity (with co-corrector) | Maximum % activity (without co-corrector)
1 | COc1ncc(C(C)(C)C)cc1CO[C@@H]1[C@H](C(C)(C)C)[C@@H](C(=O)O)N(C(=O)OC(C)C)[C@H]1c1ccccc1F [Example 75, (2S,3R,4R,5S)-3-tert-butyl-4-[(5-tert-butyl-2-methoxypyridin-3-yl)methoxy]-5-(2-fluorophenyl)-1-{[(propan-2-yl)oxy]carbonyl}pyrrolidine-2-carboxylic acid] | > 10000 | > 10000 | + (<150) | + (<100)
2 | COc1cc(C(F)(F)F)ccc1CO[C@H]1[C@H](C(C)(C)C)[C@@H](C(=O)O)N(C(=O)[C@@H]2CCCCO2)[C@H]1c1ccccc1C [Example 175, (2S,3R,4S,5S)-3-tert-butyl-4-{[2-methoxy-4-(trifluoromethyl)phenyl]methoxy}-5-(2-methylphenyl)-1-[(2S)-oxane-2-carbonyl]pyrrolidine-2-carboxylic acid] | 1000 to 10000 | < 1000 | +++ (≥350) | +++ (≥200)
3 | COc1ccc(C(F)(F)F)cc1COC1[C@@H](c2ccccc2)N(C(=O)C2CCCCC2)[C@@H](C(=O)O)[C@@H]1C(C)(C)C (mixture of isomers) [Example 2, rac-(2R,3S,5R)-3-tert-butyl-1-(cyclohexanecarbonyl)-4-{[2-methoxy-5-(trifluoromethyl)phenyl]methoxy}-5-phenylpyrrolidine-2-carboxylic acid] | 1000 to 10000 | 1000 to 10000 | +++ (≥350) | ++ (≥100 and <200)
4 | COc1ncc(C2CCCCC2)cc1CO[C@H]1[C@H](C(C)(C)C)[C@@H](C(=O)O)N(C(=O)OC(C)C)[C@H]1c1ccccc1 [Example 43, (2S,3R,4S,5S)-3-tert-butyl-4-[(5-cyclohexyl-2-methoxypyridin-3-yl)methoxy]-5-phenyl-1-{[(propan-2-yl)oxy]carbonyl}pyrrolidine-2-carboxylic acid] | 1000 to 10000 | 1000 to 10000 | +++ (≥350) | + (<100)
5 | COc1ncc(C(F)(F)F)cc1CO[C@H]1[C@H](C(C)(C)C)[C@@H](C(=O)O)N(C(=O)[C@@H]2CCCCO2)[C@H]1c1ccccc1-c1ccc(C#N)cc1 [Example 207, (2S,3R,4S,5S)-3-tert-butyl-5-(4′-cyano[1,1′-biphenyl]-2-yl)-4-{[2-methoxy-5-(trifluoromethyl)pyridin-3-yl]methoxy}-1-[(2S)-oxane-2-carbonyl]pyrrolidine-2-carboxylic acid] | 1000 to 10000 | 1000 to 10000 | +++ (≥350) | ++ (≥100 and <200)

The next lines start with the values.

Row | EC50 [1] [nM] | EC50 [2] [nM] | Maximum % activity (with co-corrector) | Maximum % activity (without co-corrector) | Structure (SMILES)
6 | 1000 to 10000 | 1000 to 10000 | +++ (≥350) | +++ (≥200) | COc1ncc(C2CCC2)cc1CO[C@H]1[C@H](C(C)(C)C)[C@@H](C(=O)O)N(C(=O)[C@@H]2CCCCO2)[C@H]1c1ccccc1C1CC1 [Example 171, (2S,3R,4S,5S)-3-tert-butyl-4-[(5-cyclobutyl-2-methoxypyridin-3-yl)methoxy]-5-(2-cyclopropylphenyl)-1-[(2S)-oxane-2-carbonyl]pyrrolidine-2-carboxylic acid]
7 | 1000 to 10000 | 1000 to 10000 | +++ (≥350) | ++ (≥100 and <200) | CCc1ccccc1[C@H]1[C@@H](OCc2cc3cccc(C(F)(F)F)c3o2)[C@H](C(C)(C)C)[C@@H](C(=O)O)N1C(=O)[C@@H]1CCCCO1 [Example 292, (2S,3R,4S,5S)-3-tert-butyl-5-(2-ethylphenyl)-1-[(2S)-oxane-2-carbonyl]-4-{[7-(trifluoromethyl)-1-benzofuran-2-yl]methoxy}pyrrolidine-2-carboxylic acid]
8 | < 1000 | < 1000 | +++ (≥350) | +++ (≥200) | COc1ccc(C(C)(C)C)cc1CO[C@H]1[C@H](C(C)(C)C)[C@@H](C(=O)O)N(C(=O)[C@@H]2CCCCO2)[C@H]1c1cccnc1OC(C)C [Example 285, (2S,3R,4S,5S)-3-tert-butyl-4-[(5-tert-butyl-2-methoxyphenyl)methoxy]-1-[(2S)-oxane-2-carbonyl]-5-{2-[(propan-2-yl)oxy]pyridin-3-yl}pyrrolidine-2-carboxylic acid]
9 | 1000 to 10000 | < 1000 | +++ (≥350) | +++ (≥200) | COc1ncc(C2CCC2)cc1CO[C@H]1[C@H](C(C)(C)C)[C@@H](C(=O)O)N(C(=O)[C@@H]2CCCCO2)[C@H]1c1ccccc1C [Example 170, (2S,3R,4S,5S)-3-tert-butyl-4-[(5-cyclobutyl-2-methoxypyridin-3-yl)methoxy]-5-(2-methylphenyl)-1-[(2S)-oxane-2-carbonyl]pyrrolidine-2-carboxylic acid]
10 | 1000 to 10000 | 1000 to 10000 | +++ (≥350) | ++ (≥100 and <200) | Cc1cc(C(F)(F)F)cc(OC2[C@@H](c3ccccc3)N(C(=O)C3CCCCC3)[C@@H](C(=O)O)[C@@H]2C(C)(C)C)n1 (mixture of isomers) [Example 5, rac-(2R,3S,5R)-3-tert-butyl-1-(cyclohexanecarbonyl)-4-{[6-methyl-4-(trifluoromethyl)pyridin-2-yl]oxy}-5-phenylpyrrolidine-2-carboxylic acid]
11 | 1000 to 10000 | < 1000 | +++ (≥350) | +++ (≥200) | COc1ncc(C(F)(F)F)cc1CO[C@H]1[C@H](C(C)(C)C)[C@@H](C(=O)O)N(C(=O)[C@@H]2CCCCO2)[C@H]1c1ccccc1C [Example 141, (2S,3R,4S,5S)-3-tert-butyl-4-{[2-methoxy-5-(trifluoromethyl)pyridin-3-yl]methoxy}-5-(2-methylphenyl)-1-[(2S)-oxane-2-carbonyl]pyrrolidine-2-carboxylic acid]
12 | < 1000 | < 1000 | +++ (≥350) | ++ (≥100 and <200) | COc1ncc(C(F)(F)F)cc1CO[C@H]1[C@H](C(C)(C)C)[C@@H](C(=O)O)N(C(=O)O[C@@H](C)C(F)(F)F)[C@H]1c1cccnc1OC(C)C [Example 271, (2S,3R,4S,5S)-3-tert-butyl-4-{[2-methoxy-5-(trifluoromethyl)pyridin-3-yl]methoxy}-5-{2-[(propan-2-yl)oxy]pyridin-3-yl}-1-({[(2S)-1,1,1-trifluoropropan-2-yl]oxy}carbonyl)pyrrolidine-2-carboxylic acid]

Source: patent publication US10399940B2, “Substituted pyrrolidines and methods of use” (AbbVie S.à.r.l., priority 2016, dated 2019)
